Results as given in the OPERA property sets (Mansouri et al. 2018).

Compound | logP
CC(C)(C)N(NC(=O)c1ccccc1)C(=O)c1cc(F)c(F)c(F)c1F | 3.44
CC(C)(C)N(NC(=O)c1ccccc1)C(=O)c1cccc([N+](=O)[O-])c1 | 2.73
CC(C)(C)N(NC(=O)c1ccccc1)C(=O)c1ccc(F)cc1 | 2.85
CC(C)(C)N(NC(=O)c1ccccc1)C(=O)c1ccccc1C(F)(F)F | 2.85
CC(C)(C)N(NC(=O)c1ccccc1)C(=O)c1ccc(Br)cc1 | 3.66
COc1ccccc1C(=O)N(NC(=O)c1ccccc1)C(C)(C)C | 2.04
Cc1ccccc1C(=O)N(NC(=O)c1ccccc1)C(C)(C)C | 2.75
CC(C)(C)N(NC(=O)c1ccccc1)C(=O)c1ccccc1I | 2.83
CC(C)(C)N(NC(=O)c1ccccc1)C(=O)c1ccc(Cl)cc1 | 3.42
COc1ccc(C(=O)N(NC(=O)c2ccccc2)C(C)(C)C)cc1 | 2.56
CC(C)(C)N(NC(=O)c1ccccc1)C(=O)c1cccc(C#N)c1 | 2.34
Cc1ccc(C(=O)N(NC(=O)c2ccccc2)C(C)(C)C)cc1C | 3.34
CC(C)(C)N(NC(=O)c1ccccc1)C(=O)c1cccc(C(F)(F)F)c1 | 3.61
Cc1ccc(C(=O)N(NC(=O)c2ccccc2)C(C)(C)C)c(C)c1 | 3.18
CC(C)(C)N(NC(=O)c1ccccc1)C(=O)c1ccccc1 | 2.45
CC(C)(C)N(NC(=O)c1ccccc1)C(=O)c1c(F)c(F)c(F)c(F)c1F | 3.25

Compound | logP
CC(C)(C)N(NC(=O)c1cccc(Cl)c1)C(=O)c1ccccc1Cl | 3.49
CC(C)(C)N(NC(=O)c1ccccc1)C(=O)c1ccc(C#N)cc1 | 2.5
COc1cccc(C(=O)N(NC(=O)c2ccccc2)C(C)(C)C)c1 | 2.56
COc1ccc(C(=O)N(NC(=O)c2ccccc2)C(C)(C)C)cc1OC | 2.09
CC(C)(C)N(NC(=O)c1ccccc1)C(=O)c1ccccc1F | 2.38
Cc1cc(C)cc(C(=O)N(NC(=O)c2ccccc2)C(C)(C)C)c1 | 3.39
CC(C)(C)N(NC(=O)c1ccccc1)C(=O)c1ccccc1[N+](=O)[O-] | 2.27
Cc1ccc(C)c(C(=O)N(NC(=O)c2ccccc2)C(C)(C)C)c1 | 3.25
Cc1ccc(C(=O)N(NC(=O)c2ccccc2)C(C)(C)C)cc1 | 2.99
CC(C)(C)N(NC(=O)c1ccccc1)C(=O)c1ccccc1Br | 2.69
CC(C)(C)N(NC(=O)c1ccccc1)C(=O)c1ccc(C(F)(F)F)cc1 | 3.77
CC(C)(C)N(NC(=O)c1ccccc1)C(=O)c1ccc([N+](=O)[O-])cc1 | 2.63
CSc1ccccc1C(=O)N(NC(=O)c1ccccc1)C(C)(C)C | 2.6
CCc1ccccc1C(=O)N(NC(=O)c1ccccc1)C(C)(C)C | 2.96
CC(C)(C)N(NC(=O)c1ccccc1)C(=O)c1ccc(I)cc1 | 3.78

Further lines, results first:

logP | Compound
3.55 | CC(C)(C)N(NC(=O)c1ccccc1)C(=O)c1ccc(Cl)cc1Cl
3.57 | Cc1c(Cl)cccc1C(=O)N(NC(=O)c1ccccc1)C(C)(C)C
2.16 | CC(C)(C)N(NC(=O)c1ccccc1)C(=O)c1c(F)cccc1F
2.75 | CC(C)(C)N(NC(=O)c1ccccc1Cl)C(=O)c1ccccc1Cl
3.49 | CC(C)(C)N(NC(=O)c1ccccc1)C(=O)c1cccc(Br)c1
2.78 | CC(C)(C)N(NC(=O)c1ccccc1)C(=O)c1cccc(F)c1
2.79 | Cc1cccc(C(=O)N(NC(=O)c2ccccc2)C(C)(C)C)c1
2.34 | CC(C)(C)N(NC(=O)c1ccccc1)C(=O)c1c(F)cccc1Cl
3.41 | CC(C)(C)N(NC(=O)c1ccccc1)C(=O)c1cccc(Cl)c1Cl
3.28 | CC(C)(C)N(NC(=O)c1ccccc1)C(=O)c1cccc(Cl)c1
3.72 | CC(C)(C)N(NC(=O)c1ccccc1)C(=O)c1cccc(I)c1
3.1 | Cc1cccc(C(=O)N(NC(=O)c2ccccc2)C(C)(C)C)c1C
4.25 | CC(C)(C)N(NC(=O)c1ccccc1)C(=O)c1ccc(Cl)c(Cl)c1
3.36 | CC(C)(C)N(NC(=O)c1ccccc1)C(=O)c1cc(Cl)ccc1Cl
2.56 | CC(C)(C)N(NC(=O)c1ccccc1)C(=O)c1c(Cl)cccc1Cl
